# Experiments:
# [1] = system: poly(rA)·poly(rU) (RNA, polymer) A/U; assay: UV-vis absorbance titration, HypSpec2014 fit; settings: NaCac 2.5 mM; pH 7.0, 25.0 °C; per base pair, site size n = 1
# [2] = system: poly(rA)·poly(rU) (RNA, polymer) A/U; assay: ethidium bromide displacement fluorescence; settings: NaCac 2.5 mM; pH 7.0; tracer ethidium bromide; some interaction
# [3] = system: poly(rA)·poly(rU) (RNA, polymer) A/U; assay: UV melting; settings: NaCac 2.5 mM; pH 7.0; 1:1 ratio complex/polynucleotide; free Tm 47.9 °C; per base
# [4] = system: poly(rU)*poly(rA)·poly(rU) (RNA, polymer) U/A/U; assay: UV melting; settings: NaCac 2.5 mM; pH 7.0; 1:1 ratio complex/polynucleotide; free Tm 46.9 °C; per base
# [5] = system: poly(rU)*poly(rA)·poly(rU) (RNA, polymer) U/A/U; assay: UV-vis absorbance titration, HypSpec2014 fit; settings: NaCac 2.5 mM; pH 7.0, 25.0 °C; per base triplet, site size n = 1
smiles,measurement,setting,value
C=[C-]c1cccc(OC(=O)c2ccccc2OC(C)=O)c1.[C-]#[O+].[C-]#[O+].[C-]#[O+].[Ru+2].[Ru+2].c1cc[cH-]c1.c1cc[cH-]c1,K,[1],(6.0 ± 0.9) × 10^5
same,binding,[2],yes
same,ΔTm,[3],-6.5 ± 0.9 °C
same,ΔTm,[4],1.6 ± 0.5 °C
same,K,[5],(3.1 ± 0.9) × 10^5

# From PMC10410612 (2023)
